Experimental data reported in patent US20240101576A1, “HETEROCYCLIC INHIBITORS OF EGFR AND/OR HER2, FOR USE IN THE TREATMENT OF CANCER” (Scorpion Therapeutics, Inc., priority 2020, published 2024).

Key:
Format in all cases: cell-based
EGFR WT (Ba/F3 cells) = target: T1, EGFR WT (Ba/F3 cells) (Homo sapiens, UniProt P00533); assay: Inhibitor activity on EGFR-dependent cell growth (CellTiter-Glo, 72 h), Ba/F3 EGFR WT; details: read-out: BaF3 WT IC50
T1 construct: expressed in transfected cells; host or cells: Ba/F3 (murine pro-B cells), retroviral transduction, puromycin selection, maintained with EGF
How it was run: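 This growth assay used Ba/F3 cells that depend on wild-type EGFR and are kept in EGF without IL3. Compounds were made up as 10 mM DMSO stocks and diluted 3-fold over 10 points. 120 nL went onto 600 cells/well. After 72 hours, 40 μL CellTiter-Glo was added and luminescence read on EnVision after 30 min.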

[1] = target: T2, EGFR L858R/C797S (Ba/F3 cells) (Homo sapiens, UniProt P00533, C797S/L858R); assay: Inhibitor activity on EGFR-dependent cell growth (CellTiter-Glo, 72 h), Ba/F3 EGFR L858R/C797S; details: read-out: BaF3 L858R/C797S IC50
T2 construct: expressed in transfected cells; host or cells: Ba/F3 (murine pro-B cells), retroviral transduction, puromycin selection, IL3-independent pool
Text: Example A. Inhibitor Activity on EGFR-Dependent Cell Growth
Cell lines are generated by transducing Ba/F3 cells with retroviruses containing vectors with EGFR WT, EGFR L858R, EGFR exon 19del, EGFR L858R/C797S, EGFR exon 20 NPG Ins D770_N771, EGFR exon 20 ASV Ins V769_D770, EGFR exon 20 SVD Ins D770_N771, or EGFR exon 20 FQEA Ins A763_V764 genes and a puromycin selection marker. Transduced cells are selected with puromycin for 7 days and are then be transferred into culture media without Interleukin 3 (IL3). EGFR WT cells are maintained with supplemental EGF. Surviving cells are confirmed to express EGFR by Western blot and maintained as a pool. The IC50 date were included in Table 6 and Table 7.
(§1) 1.1 Cells are harvested from flask into cell culture medium and the cell number counted.
1.2 Cells are diluted with culture medium to the desired density and 40 μL of cell suspension is added into each well of 384-well cell culture plate and the seeding density is 800 (FQEA, exon 19del), 600 (WT, NPG, L858R/C797S), or 400 (ASV, SVD, L858R) cells/well.
(§2) 2 Compound Preparation and Treatment
(§3) 2.1 Test compounds are dissolved to 10 mM in a DMSO stock solution. 45 μL of stock solution is transferred to a 384 polypropylene plate (pp-plate). Perform 3-fold, 10-point dilution via transferring 15 μL compound into 30 μL DMSO using a TECAN (EVO200) liquid handler.
(§4) 2.2 Spin plates at room temperature at 1,000 RPM for 1 minute.
2.3 Transfer 120 nL of diluted compound from compound source plate into the cell plate.
2.4 After compound treatment for 72 hours, perform CTG detection for compound treatment plates as described in “Detection” section.
3.1 Plates are removed from incubators and equilibrated at room temperature for 15 minutes.
3.2 Thaw the CellTiter Glo reagents and allow to equilibrate to room temperature before the experiment.
3.3 Add 40 μL of CellTiter-Glo reagent into each well (at 1:1 to culture medium). Then place the plates at room temperature for 30 min followed by reading on EnVision.
4.1 Inhibition activity is calculated following the formula below:
% Inhibition=100×(LumHC−LumSample)/(LumHC−LumLC) • where HC is obtained from cells treated with 0.1% DMSO only; and LC is obtained from culture medium only.
4.2 2. Calculate the IC50 by fitting the Curve using Xlfit (v5.3.1.3), equation 201.
Y=Bottom+(Top−Bottom)/(1+10^((Log IC50−X)*HillSlope))

EGFR L858R (Ba/F3 cells) [2] = target: T3, EGFR L858R (Ba/F3 cells) (Homo sapiens, UniProt P00533, L858R); assay: Inhibitor activity on EGFR-dependent cell growth (CellTiter-Glo, 72 h), Ba/F3 EGFR L858R; details: read-out: BaF3 L858R IC50
T3 construct: expressed in transfected cells; host or cells: Ba/F3 (murine pro-B cells), retroviral transduction, puromycin selection, IL3-independent pool
How it was run: (§5)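 Mutant EGFR drives IL3-independent growth of engineered Ba/F3 pools. L858R cells go in at 400/well, L858R/C797S at 600, and exon 19del or FQEA insertion at 800. After 72 h with compound, plates are equilibrated 15 min at RT. Reagent is added 1:1, followed by 30 min and a luminescence read.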

EGFR L858R (Ba/F3 cells) [3] = target: T3, EGFR L858R (Ba/F3 cells); assay: Inhibitor activity on EGFR phosphorylation (pEGFR AlphaLISA, 2 h), Ba/F3 EGFR L858R
Text: (§6) Example B. Inhibitor Activity on EGFR phosphorylation (pEGFR)
(§7) EGFR mutant Ba/F3 cells were generated by transduction with retrovirus containing vectors expressing EGFR L858R, EGFR exon 19del, EGFR L858R/C797S, EGFR exon 20 NPG Ins D770_N771, EGFR exon 20 ASV Ins V769_D770, or EGFR exon 20 SVD Ins D770_N771 genes along with a puromycin selection marker. Transduced cells are selected with puromycin for 7 days and are then be transferred into culture media without Interleukin 3 (IL3). Surviving cells are confirmed to express EGFR by Western blot and maintained as a pool. CUTO14 cells were obtained from Dr. Robert C. Doebele at the University of Colorado. The IC50 date are included in Table 6 and Table 7.
as §1
(§8) 1.2 Cells are diluted with culture medium to the desired density and 40 μL of cell suspension is added into each well of 384-well cell culture plate and the seeding density is 50K cells/well (Ba/F3) or 12.5K cells/well (CUTO14).
as §2, §3, §4
(§9) 2.3 Transfer 5 nL of diluted compound from compound source plate into the cell plate.
(§10) 2.4 After compound treatment for 2 hours, perform pEGFR detection by AlphaLISA for compound treatment plates as described in “Detection” section.
(§11) 3 Detection by pEGFR AlphaLISA (Perkin-Elmer)
(§12) 3.1 Plates are removed from incubators and equilibrated at room temperature for 10 minutes, and media was removed
(§13) 3.2 10 μL of lysis buffer is added and plates shaken at 600 rpm for 1 hr.
(§14) 3.3 Prepare acceptor mix just before use and dispense 5 μL of acceptor mix to all the wells. Shake 350 rpm for Ihr in the dark
(§15) 3.4 Prepare donor mix under low light conditions prior to use. Dispense 5 μL of donor mix to all the wells. Mix well on the shaker, seal and wrap in aluminum foil and incubate 1.5 hrs at room temperature in the dark
(§16) 3.5 Transfer 18.5 μL mixture to OptiPlate 384, and read using an Envision. The IC50 date were included in Table 6 and Table 7.

[4] = target: T2, EGFR L858R/C797S (Ba/F3 cells); assay: Inhibitor activity on EGFR phosphorylation (pEGFR AlphaLISA, 2 h), Ba/F3 EGFR L858R/C797S
Text: as §6, §7, §1, §8, §2, §3, §4, §9, §10, §11, §12, §13, §14, §15, §16

[5] = target: T4, EGFR exon 20 SVD Ins D770_N771 (Ba/F3 cells) (Homo sapiens, UniProt P00533, INS770SVD); assay: Inhibitor activity on EGFR-dependent cell growth (CellTiter-Glo, 72 h), Ba/F3 EGFR exon 20 SVD Ins; details: read-out: BaF3 SVD IC50
T4 construct: expressed in transfected cells; host or cells: Ba/F3 (murine pro-B cells), retroviral transduction, puromycin selection, IL3-independent pool
How it was run: (§17)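 IC50s derive from a sigmoidal dose–response fit of CellTiter-Glo signal. The signal was normalised between […]-treated cells and cell-free medium. Ba/F3 mutant-EGFR cells, seeded at 400–800/well depending on the line, had 72 h of exposure to a 10-point, 3-fold compound series.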

[6] = target: T5, EGFR exon 20 ASV Ins V769_D770 (Ba/F3 cells) (Homo sapiens, UniProt P00533, INS769ASV); assay: Inhibitor activity on EGFR-dependent cell growth (CellTiter-Glo, 72 h), Ba/F3 EGFR exon 20 ASV Ins; details: read-out: BaF3 ASV IC50
T5 construct: expressed in transfected cells; host or cells: Ba/F3 (murine pro-B cells), retroviral transduction, puromycin selection, IL3-independent pool
How it was run: as §17

[7] = target: T6, EGFR exon 19del (Ba/F3 cells) (Homo sapiens, UniProt P00533); assay: Inhibitor activity on EGFR phosphorylation (pEGFR AlphaLISA, 2 h), Ba/F3 EGFR exon 19del; details: read-out: Del19 IC50 (pEGFR)
Text: as §6, §7, §1, §8, §2, §3, §4, §9, §10, §11, §12, §13, §14, §15, §16

[8] = target: T7, EGFR exon 20 FQEA Ins A763_V764 (Ba/F3 cells) (Homo sapiens, UniProt P00533, INS763FQEA); assay: Inhibitor activity on EGFR-dependent cell growth (CellTiter-Glo, 72 h), Ba/F3 EGFR exon 20 FQEA Ins; details: read-out: BaF3 FQEA IC50
T7 construct: expressed in transfected cells; host or cells: Ba/F3 (murine pro-B cells), retroviral transduction, puromycin selection, IL3-independent pool
How it was run: as §5

[9] = target: T6, EGFR exon 19del (Ba/F3 cells); assay: Inhibitor activity on EGFR-dependent cell growth (CellTiter-Glo, 72 h), Ba/F3 EGFR exon 19del; details: Ba/F3 EGFR exon 19del cell growth, read-out: BaF3 Del19 IC50
How it was run: as §5

[10] = target: T8, EGFR exon 20 NPG Ins D770_N771 (Ba/F3 cells) (Homo sapiens, UniProt P00533, INS770NPG); assay: Inhibitor activity on EGFR-dependent cell growth (CellTiter-Glo, 72 h), Ba/F3 EGFR exon 20 NPG Ins; details: read-out: BaF3 NPG IC50
T8 construct: expressed in transfected cells; host or cells: Ba/F3 (murine pro-B cells), retroviral transduction, puromycin selection, IL3-independent pool
How it was run: as §17

EGFR (CUTO14 cells) = EGFR (CUTO14 cells) (Homo sapiens, UniProt P00533); assay: Inhibitor activity on EGFR phosphorylation (pEGFR AlphaLISA, 2 h), CUTO14 cells
Text: as §6, §7, §1, §8, §2, §3, §4, §9, §10, §11, §12, §13, §14, §15, §16

T6 sequence (P00533 with tags, fused parts or gaps DEL746-750): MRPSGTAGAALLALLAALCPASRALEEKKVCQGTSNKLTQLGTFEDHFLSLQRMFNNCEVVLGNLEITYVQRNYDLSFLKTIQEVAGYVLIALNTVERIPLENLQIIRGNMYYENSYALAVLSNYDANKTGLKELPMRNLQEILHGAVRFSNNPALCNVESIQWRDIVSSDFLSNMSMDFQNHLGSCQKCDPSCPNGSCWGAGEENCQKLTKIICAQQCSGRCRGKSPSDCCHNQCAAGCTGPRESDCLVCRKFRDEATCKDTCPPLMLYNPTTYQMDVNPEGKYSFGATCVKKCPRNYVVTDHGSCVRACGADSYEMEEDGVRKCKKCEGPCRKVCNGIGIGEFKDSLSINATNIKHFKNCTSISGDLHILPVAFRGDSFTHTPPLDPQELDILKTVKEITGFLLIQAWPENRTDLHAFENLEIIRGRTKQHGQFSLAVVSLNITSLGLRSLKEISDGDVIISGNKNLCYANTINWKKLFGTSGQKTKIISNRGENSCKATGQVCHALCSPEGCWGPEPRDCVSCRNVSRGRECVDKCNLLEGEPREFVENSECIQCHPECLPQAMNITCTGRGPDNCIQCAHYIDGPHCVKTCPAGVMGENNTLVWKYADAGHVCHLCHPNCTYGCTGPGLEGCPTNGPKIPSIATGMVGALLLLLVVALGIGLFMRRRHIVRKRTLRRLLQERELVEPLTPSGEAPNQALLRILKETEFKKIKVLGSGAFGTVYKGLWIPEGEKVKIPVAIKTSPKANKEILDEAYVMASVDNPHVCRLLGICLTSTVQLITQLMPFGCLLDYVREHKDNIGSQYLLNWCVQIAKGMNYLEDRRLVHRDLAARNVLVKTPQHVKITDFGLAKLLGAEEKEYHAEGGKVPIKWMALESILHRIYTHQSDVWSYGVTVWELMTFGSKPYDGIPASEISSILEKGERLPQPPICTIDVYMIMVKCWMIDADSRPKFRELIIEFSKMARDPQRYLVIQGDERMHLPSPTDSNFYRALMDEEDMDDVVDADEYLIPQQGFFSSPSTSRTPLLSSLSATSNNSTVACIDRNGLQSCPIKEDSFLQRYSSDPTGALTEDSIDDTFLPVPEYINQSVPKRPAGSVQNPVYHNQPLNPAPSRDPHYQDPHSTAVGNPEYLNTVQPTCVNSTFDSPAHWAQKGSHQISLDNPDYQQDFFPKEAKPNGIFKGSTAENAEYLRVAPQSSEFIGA
T4 sequence (P00533 with tags, fused parts or gaps INS770SVD): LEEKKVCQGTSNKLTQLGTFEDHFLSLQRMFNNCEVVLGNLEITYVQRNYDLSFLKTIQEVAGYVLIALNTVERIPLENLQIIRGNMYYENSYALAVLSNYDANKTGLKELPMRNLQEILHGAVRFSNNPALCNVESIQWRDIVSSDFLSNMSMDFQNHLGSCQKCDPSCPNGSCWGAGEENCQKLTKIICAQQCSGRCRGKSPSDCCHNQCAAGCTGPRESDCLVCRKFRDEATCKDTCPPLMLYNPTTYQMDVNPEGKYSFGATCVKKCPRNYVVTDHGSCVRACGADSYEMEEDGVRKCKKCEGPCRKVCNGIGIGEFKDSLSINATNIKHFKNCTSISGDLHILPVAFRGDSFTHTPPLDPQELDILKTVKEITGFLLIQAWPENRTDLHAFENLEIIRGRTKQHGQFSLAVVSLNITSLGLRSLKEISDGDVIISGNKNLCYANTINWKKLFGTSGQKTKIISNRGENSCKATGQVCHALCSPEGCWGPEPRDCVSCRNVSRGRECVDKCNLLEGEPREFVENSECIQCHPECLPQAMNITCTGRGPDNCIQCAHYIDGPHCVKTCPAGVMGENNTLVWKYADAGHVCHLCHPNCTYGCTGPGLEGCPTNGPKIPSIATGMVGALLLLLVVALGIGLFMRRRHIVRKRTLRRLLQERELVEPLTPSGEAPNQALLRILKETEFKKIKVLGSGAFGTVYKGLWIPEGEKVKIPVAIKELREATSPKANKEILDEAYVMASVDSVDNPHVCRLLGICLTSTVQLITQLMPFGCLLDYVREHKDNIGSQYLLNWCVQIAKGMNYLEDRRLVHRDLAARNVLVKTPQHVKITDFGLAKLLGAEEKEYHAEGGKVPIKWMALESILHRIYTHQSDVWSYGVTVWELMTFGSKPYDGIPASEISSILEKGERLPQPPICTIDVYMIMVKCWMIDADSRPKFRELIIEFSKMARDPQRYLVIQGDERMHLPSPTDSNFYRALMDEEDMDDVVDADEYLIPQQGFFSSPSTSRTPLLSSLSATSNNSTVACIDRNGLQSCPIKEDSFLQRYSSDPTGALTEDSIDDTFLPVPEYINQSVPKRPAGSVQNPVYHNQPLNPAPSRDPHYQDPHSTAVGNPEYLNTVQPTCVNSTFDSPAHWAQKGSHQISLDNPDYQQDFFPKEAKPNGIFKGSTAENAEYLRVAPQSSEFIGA
T2 sequence (P00533 25-1210 C797S/L858R): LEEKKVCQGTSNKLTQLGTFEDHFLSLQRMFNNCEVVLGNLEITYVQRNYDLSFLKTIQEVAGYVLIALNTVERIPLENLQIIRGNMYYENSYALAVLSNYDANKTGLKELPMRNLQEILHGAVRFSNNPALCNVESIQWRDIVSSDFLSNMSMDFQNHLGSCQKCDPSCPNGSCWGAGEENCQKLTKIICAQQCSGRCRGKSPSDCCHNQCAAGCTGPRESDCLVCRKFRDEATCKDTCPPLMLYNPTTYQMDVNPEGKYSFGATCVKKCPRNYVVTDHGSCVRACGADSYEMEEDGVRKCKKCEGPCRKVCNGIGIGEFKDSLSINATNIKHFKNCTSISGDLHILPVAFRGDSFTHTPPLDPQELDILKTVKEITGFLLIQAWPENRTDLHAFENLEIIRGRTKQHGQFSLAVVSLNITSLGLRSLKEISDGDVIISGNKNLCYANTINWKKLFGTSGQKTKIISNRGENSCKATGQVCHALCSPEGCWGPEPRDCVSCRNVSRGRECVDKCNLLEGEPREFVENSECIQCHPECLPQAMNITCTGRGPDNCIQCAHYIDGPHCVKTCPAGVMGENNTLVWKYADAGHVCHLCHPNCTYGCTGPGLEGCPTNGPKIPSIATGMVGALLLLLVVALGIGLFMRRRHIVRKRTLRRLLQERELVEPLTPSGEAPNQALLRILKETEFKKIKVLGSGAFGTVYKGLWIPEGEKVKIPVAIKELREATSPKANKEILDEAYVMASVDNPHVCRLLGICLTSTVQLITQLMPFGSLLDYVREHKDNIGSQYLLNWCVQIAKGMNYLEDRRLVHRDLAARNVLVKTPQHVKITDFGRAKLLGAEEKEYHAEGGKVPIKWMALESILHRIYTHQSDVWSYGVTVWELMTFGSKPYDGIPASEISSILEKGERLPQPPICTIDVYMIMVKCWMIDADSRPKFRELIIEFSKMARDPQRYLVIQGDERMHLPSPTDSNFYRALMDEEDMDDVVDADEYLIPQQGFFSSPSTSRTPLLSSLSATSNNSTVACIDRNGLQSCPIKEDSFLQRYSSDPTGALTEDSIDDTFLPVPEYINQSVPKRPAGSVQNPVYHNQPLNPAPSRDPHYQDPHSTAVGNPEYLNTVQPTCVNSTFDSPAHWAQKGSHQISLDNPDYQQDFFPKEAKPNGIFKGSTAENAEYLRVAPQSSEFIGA
T1 sequence (P00533 25-1210): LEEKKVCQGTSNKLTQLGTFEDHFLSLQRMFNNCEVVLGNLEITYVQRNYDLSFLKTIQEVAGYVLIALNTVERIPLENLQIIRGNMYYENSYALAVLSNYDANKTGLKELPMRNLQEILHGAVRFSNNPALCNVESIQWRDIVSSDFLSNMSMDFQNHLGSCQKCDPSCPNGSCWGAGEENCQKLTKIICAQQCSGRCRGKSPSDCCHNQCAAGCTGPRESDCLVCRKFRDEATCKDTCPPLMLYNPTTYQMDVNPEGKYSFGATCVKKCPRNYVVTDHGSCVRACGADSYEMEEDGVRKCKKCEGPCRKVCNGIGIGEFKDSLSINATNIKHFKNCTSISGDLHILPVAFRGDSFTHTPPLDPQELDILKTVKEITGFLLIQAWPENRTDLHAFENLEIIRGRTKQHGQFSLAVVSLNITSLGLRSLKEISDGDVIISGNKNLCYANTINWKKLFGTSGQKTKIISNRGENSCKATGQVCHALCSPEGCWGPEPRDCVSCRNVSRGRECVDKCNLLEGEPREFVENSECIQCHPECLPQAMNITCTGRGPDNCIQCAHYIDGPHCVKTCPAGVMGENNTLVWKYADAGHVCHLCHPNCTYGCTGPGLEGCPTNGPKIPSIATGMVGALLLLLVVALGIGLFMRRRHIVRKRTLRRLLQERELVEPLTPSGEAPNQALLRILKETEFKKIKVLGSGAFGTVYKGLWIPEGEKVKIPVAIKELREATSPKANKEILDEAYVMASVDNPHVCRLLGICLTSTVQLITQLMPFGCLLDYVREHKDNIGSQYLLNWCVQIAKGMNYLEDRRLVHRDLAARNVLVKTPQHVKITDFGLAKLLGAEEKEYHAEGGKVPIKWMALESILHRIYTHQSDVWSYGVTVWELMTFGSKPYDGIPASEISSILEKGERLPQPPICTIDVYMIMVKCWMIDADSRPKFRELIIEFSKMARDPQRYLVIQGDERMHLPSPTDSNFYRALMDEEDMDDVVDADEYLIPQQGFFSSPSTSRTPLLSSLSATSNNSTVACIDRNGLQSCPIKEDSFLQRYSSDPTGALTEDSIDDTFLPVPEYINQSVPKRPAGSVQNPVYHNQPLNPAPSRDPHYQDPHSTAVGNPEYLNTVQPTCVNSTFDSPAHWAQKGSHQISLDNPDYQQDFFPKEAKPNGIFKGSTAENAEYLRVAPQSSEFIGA

Row | SMILES | IC50 (EGFR WT (Ba/F3 cells)) [nM] | IC50 [1] [nM] | IC50 (EGFR L858R (Ba/F3 cells) [2]) [nM] | IC50 (EGFR L858R (Ba/F3 cells) [3]) [nM] | IC50 [4] [nM] | IC50 [5] [nM] | IC50 [6] [nM] | IC50 [7] [nM] | IC50 [8] [nM] | IC50 [9] [nM] | IC50 [10] [nM] | IC50 (EGFR (CUTO14 cells)) [nM]
1 | COc1ncc2nccc(-c3[nH]c4c(c3Nc3cccc(F)c3C)C(=O)NCC4)c2n1 [Compound 794, 3-[(3-fluoro-2-methylphenyl)amino]-2-[2-methoxypyrido[3,2-d]pyrimidin-8-yl]-1H,5H,6H,7H-pyrrolo[3,2-c]pyridin-4-one] | 100 to 1000 | < 100 | < 100 | < 100 | < 100 | < 100 | < 100 | < 100 | < 100 | < 100 | – | –
2 | COc1c(F)cccc1Nc1c(-c2ccnc(C)n2)[nH]c2c(C[C@@H]3COCCO3)c[nH]c(=O)c12 [compound 658] | 100 to 1000 | < 100 | < 100 | – | < 100 | < 100 | < 100 | – | – | < 100 | < 100 | < 100
3 | COc1c(Cl)cccc1Nc1c(-c2ccncc2F)[nH]c2c1C(=O)NC[C@@H]2CC(F)F [Compound 819, (7S)-3-[(3-chloro-2-methoxyphenyl)amino]-7-(2,2-difluoroethyl)-2-(3-fluoropyridin-4-yl)-1H,5H,6H,7H-pyrrolo[3,2-c]pyridin-4-one] | > 1000 | < 100 | < 100 | < 100 | < 100 | 100 to 1000 | 100 to 1000 | < 100 | 100 to 1000 | < 100 | – | –
4 | COCC[C@H]1CNC(=O)c2c1[nH]c(-c1ccncn1)c2Nc1cccc(Cl)c1OC [445b] | > 1000 | < 100 | < 100 | < 100 | < 100 | 100 to 1000 | 100 to 1000 | < 100 | 100 to 1000 | < 100 | – | –
5 | COc1c(Cl)cccc1Nc1c(-c2ccnc(N)n2)[nH]c2c1C(=O)NC[C@H]2C[C@H]1COCCO1 [Compound 571, (7R)-2-(2-aminopyrimidin-4-yl)-3-[(3-chloro-2-methoxyphenyl)amino]-7-[(2S)-1,4-dioxan-2-ylmethyl]-1H,5H,6H,7H-pyrrolo[3,2-c]pyridin-4-one] | 100 to 1000 | – | < 100 | – | – | < 100 | < 100 | – | < 100 | < 100 | < 100 | < 100
